Experimental data reported in patent US11246309B2, “Preserving agent for organs or tissue and preservation method for organs or tissue” (ISHIHARA SANGYO KAISHA, LTD., priority 2015, dated 2022).

Columns and labels:
liver [1] = assay: Organ preservation test: hepatic histopathological change after preservation at 4° C.; set-up: species or system SD rats; details: additives in UW solution, score 0 to 3.0 per sample
Experimental: The formulations of preserving solutions containing UW solution, and a combination of quercetin and sugar were evaluated using a hepatic histopathological change as an index.
Williams solution only, Williams solution containing only quercetin (10 μg/mL), Williams solution containing only fructose (0.2M), Williams solution containing only sucrose (0.1M), Williams solution containing quercetin (10 μg/mL) and fructose (0.2M), or Williams solution containing quercetin (10 μg/mL) and sucrose (0.1M) was used as an organ perfusion solution. Subsequently, as an organ preserving solution, UW solution only, UW solution containing only quercetin (10 μg/mL), UW solution containing only fructose (0.2M), UW solution containing only sucrose (0.1M), UW solution containing quercetin (10 μg/mL) and fructose (0.2M) or UW solution containing quercetin (10 μg/mL) and sucrose (0.1M) was used.
SD rats (male, body weight=264.1 g to 317.2 g) were injected with heparin from the portal vein under anesthesia. Thereafter, they were perfused with a physiological saline solution (8 cmH2O, about 100 mL) at room temperature, and then perfused with each organ perfusion solution (8 cmH2O, about 100 mL) at room temperature. Thereafter, the liver was excised, immersed in 20 mL of each organ preserving solution, and preserved at 4° C. 1 day after and 2 days after the preservation was started, all liver samples were immobilized using a 10% phosphate buffer formalin aqueous solution, and embedded in paraffin according to the standard method. Each sample was sliced into about 6 μm and a hematoxylin-eosin staining sample was prepared, followed by microscopic examination. The degrees of the observed histopathological change were converted to scores as shown below, and summed as cumulative values.
Score 0: no change was observed, Score 0.5: slight change was observed, Score 1.0: small change was observed, Score 2.0: intermediate change was observed, Score 3.0: great change was observed.

liver [2] = assay: Organ preservation test: rat liver preserved at 4° C., ALT in organ immersion solution; set-up: species or system SD rats; details: additives in UW solution, liver at 4° C., mean of n=3 ± SD
Experimental: The protective action of a preserving solution for organs or tissue used in organ transplantation or tissue transplantation was assumed, and formulations of preservative solutions containing UW solution, and a combination of quercetin and sugar were evaluated using liver damage degree as an index. Williams solution (GIBCO, No. 12551-032) only, Williams solution containing quercetin (Sigma-Aldrich, 337951-25G) (10 μg/mL), Williams solution containing quercetin (10 μg/mL) and fructose (0.05M to 0.4M) (Kanto Chemical Co., Inc., Code No. 16065-00) (0.05M to 0.4M), or Williams solution containing quercetin (10 μg/mL) and sucrose (0.025M to 0.2M) (Nacalai Tesque, Inc., Code No. 30404-45) (0.025M to 0.2M) was used as an organ perfusion solution. Subsequently, UW solution (VSP1000, […] (cold storage solution) 1000 mL: Astellas Pharma Inc.) only, UW solution containing quercetin (10 μg/mL), UW solution containing quercetin (10 μg/mL) and fructose (0.05M to 0.4M), or UW solution containing quercetin (10 μg/mL) and sucrose (0.025M to 0.2M) was used as an organ preserving solution. SD rats (male, body weight=255.4 g to 339.0 g) were injected with heparin from the portal vein under anesthesia. Thereafter, they were perfused with a physiological saline solution (8 cmH2O, about 100 mL) at room temperature, and then perfused with each organ perfusion solution (8 cmH2O, about 100 mL) at room temperature. Thereafter, the liver was excised, immersed in 20 mL of each organ preserving solution, and preserved at 4° C. A part of each organ preserving solution was collected at 1 day after, 3 days after, 5 days after, and 7 days after the preservation was started, and ALT (alanine aminotransferase) (IU/L) was measured as an index of the degree of liver damage due to low-temperature preservation. The measured ALT are shown in Tables 1 and 2 (average value of n=3±standard deviation).

[3] = 1 day after preservation at 4° C. was started
[4] = 2 days after preservation at 4° C. was started

| Structure (SMILES) | Histopathological Change: Diffuse Vacuolar Degeneration (Cumulative Score of n = 3) (liver [1]; [3]) | Histopathological Change: Sporadic Single Cell Cloudy Swelling (Cumulative Score of n = 3) (liver [1]; [3]) | Histopathological Change: Sporadic Single Cell Necrosis (Cumulative Score of n = 3) (liver [1]; [3]) | Histopathological Change: Diffuse Vacuolar Degeneration (Cumulative Score of n = 3) (liver [1]; [4]) | Histopathological Change: Sporadic Single Cell Cloudy Swelling (Cumulative Score of n = 3) (liver [1]; [4]) | Histopathological Change: Sporadic Single Cell Necrosis (Cumulative Score of n = 3) (liver [1]; [4]) | ALT Value in Organ Immersion Solution (liver [2]; Table 1, 1 day after) | ALT Value in Organ Immersion Solution (liver [2]; Table 1, 3 days after) | ALT Value in Organ Immersion Solution (liver [2]; Table 1, 5 days after) | ALT Value in Organ Immersion Solution (liver [2]; Table 1, 7 days after) | ALT Value in Organ Immersion Solution (liver [2]; Table 2, 1 day after) | ALT Value in Organ Immersion Solution (liver [2]; Table 2, 3 days after) | ALT Value in Organ Immersion Solution (liver [2]; Table 2, 5 days after) | ALT Value in Organ Immersion Solution (liver [2]; Table 2, 7 days after) |
| --- | --- | --- | --- | --- | --- | --- | --- | --- | --- | --- | --- | --- | --- | --- |
| OC[C@H]1O[C@@](CO)(O[C@H]2O[C@H](CO)[C@@H](O)[C@H](O)[C@H]2O)[C@@H](O)[C@@H]1O [0.1M Sucrose, sucrose] | 3.0 | 2.0 | 0.5 | 3.0 | 2.5 | 1.0 |  |  |  |  |  |  |  |  |
| O=C(CO)[C@@H](O)[C@H](O)[C@H](O)CO [0.2M Fructose, fructose] | 2.0 | 2.5 | 1.0 | 1.5 | 1.0 | 0.5 |  |  |  |  |  |  |  |  |
| O=c1c(O)c(-c2ccc(O)c(O)c2)oc2cc(O)cc(O)c12 [Quercetin 10 μg/mL, quercetin] | 3.0 | 1.5 | 0.0 | 3.0 | 2.0 | 0.5 | 65 ± 71 IU/L | 90 ± 82 IU/L | 98 ± 77 IU/L | 117 ± 71 IU/L | 62 ± 68 IU/L | 108 ± 121 IU/L | 126 ± 135 IU/L | 148 ± 144 IU/L |
